Experimental data published in patent US20100004333A1, “COMPOSITIONS AND METHODS FOR TREATING CARDIOVASCULAR DISORDERS” (priority 2004, published 2010).

Tests used:
[1] = tested on: aortic rings from rabbits; experiment: HOCl-induced endothelial dysfunction in aortic rings from rabbits fed supplemented diet; format: in vivo, New Zealand White rabbits; details: dietary 1% probucol, 0.2% DTBP or 0.02% BP, 4 weeks; for Relaxation to ACh of aortic rings after 400 μM HOCl: FIG. 6A; for Tissue cGMP of aortic rings after 400 μM HOCl and 1 μM ACh: FIG. 6B
Procedure: All other reagents were of the highest quality available. Buffers were routinely filtered, argon-flushed and stored at 4° C. prior to use. Solutions of HOCl were prepared freshly before use by diluting reagent HOCl (Aldrich) into phosphate buffer (250 mM, pH 7.0) and standardizing with ε235 nm˜100 M^−1cm^−1 (hypochlorous acid) and ε290 nm˜300 M^−1cm^−1 (hypochlorite), as described in Journal of Physical Chemistry 1966, 70:3798-3805. Animals: New Zealand White rabbits (2.5-3 kg) were obtained from a commercial farm (Wauchope, NSW Australia) and housed individually for the entire study period. […] Feed and water were provided ad libitum for a period of 4 weeks judged to be sufficient time for circulating drug levels to reach a maximum (data not shown). […] The local ethics committee approved the study. Vascular reactivity: Perfused rabbit aortas were harvested and vascular reactivity studies performed as described in Circulation 2003, 107:2031-2036. Briefly, within 2 h of isolation, ring segments ˜5 mm in length were mounted in a myobath system (World Precision Instruments, Sarasota, Fla.) containing 20 mL of Krebs solution aerated at 37° C. with 5% CO2(g), and the dilatory response of half maximally norepinephrine pre-constricted rings to incremental doses of ACh (10^−9-10^−5 mol/L) determined. Where indicated, reagent HOCl (final concentration 400 μM) was added to the Krebs solution and the rings incubated for 5 min prior to thorough washing, pre-constriction and assessment of vessel relaxation. In some studies rings were incubated with probucol or DTBP for 10 min, washed thoroughly and then exposed to HOCl prior to assessing endothelium-dependent relaxation. A maximum of three consecutive sequences of constriction/relaxation were performed for each ring. Preparation of Aortic Homogenates: Aortic Rings Used in the Vascular Function Studies were removed and immediately cut into small pieces, frozen in liquid nitrogen, and then pulverized and homogenized as described. An aliquot (50 μL) of homogenate was removed for protein determination (BCA assay, Sigma) and the remainder extracted into methanol/hexane (5:1, v/v), the resulting hexane fraction dried and the residue suspended in isopropanol for analysis of probucol and its oxidation products. For cGMP determinations, aortic segments were treated with vehicle (control) or HOCl (400 μM) before addition of 1 μM ACh in the presence of 200 μM 3-isobutyl-1-methylxanthine and measurement of cGMP in the homogenate using a kit (Cayman Chemical, Ann Arbor, Mich.). Probucol oxidation studies: Probucol is a highly lipophilic compound (partition coefficient between octanol and water=[…]) that readily distributes into lipoproteins. To mimic the biological situation, oxidation reactions were therefore performed with probucol (or DTBP) dissolved in hexane (2 mL) to which aliquots of HOCl were added to give the final concentrations indicated. The heterogeneous mixtures were shaken vigorously at 37° C. for 60 min, then placed on ice after adding 1 mL water, the hexane phase removed, dried under vacuum and resuspended in isopropanol (200 μL) for HPLC analyses (see below). The aqueous phase was analyzed for the content of sulfate anion (SO4^2−) by ion exchange chromatography (see below). Analytical analyses: Probucol, DTBP, BP and DPQ were analyzed by gradient reversed-phase HPLC and quantified by peak area comparison with authentic standards. Under the conditions used, BP, DTBP, probucol and DPQ eluted at 12.5, 19.2, 20.8 and 28.4 min, respectively. Other oxidation products resolved by this HPLC system were also quantified by peak area comparison, using analytically pure samples obtained from semi-preparative (LC-18, 20 mm×25 cm, 5 μm) fractionation of the reaction mixture. Isolated samples were dried under vacuum, re-dissolved to a known concentration and assessed for purity by analytical HPLC (LC-18, 4.6 mm×25 cm, 5 μm) in combination with mass spectrometry (see below). […]

[2] = tested on: New Zealand White rabbits; experiment: Rabbit aortic balloon-injury model: intimal hyperplasia; format: in vivo; details: for Intimal thickening / intima-to-media ratio after aortic balloon injury: 1% probucol, 0.02% DTBP, 0.02% BP, FIG. 13a, b; for Plasma total cholesterol concentration: rabbits, FIG. 13e
Procedure: Rabbit aortic balloon-injury model. Four groups of male New Zealand White rabbits (1.8-2.2 kg, Merunga Farm, Coffs Harbour, Australia), matched for body weight and baseline plasma cholesterol, were fed 100 g per day of normal chow±1% probucol, 0.02% DTBP, or 0.02% BP (wt/wt) for up to nine weeks. Aortic balloon-injury (ABI) was carried out at the end of week three, resulting in complete endothelial denudation. Harvesting of aortas was done after a further 6 weeks (n=6 per group). Aortic lesion assessment was carried out at the 3rd pair of lumber arteries in NZW rabbits as described in Circulation 2003, 107:2031-2036. Statistics. Data are expressed as mean±SEM. One-way ANOVA and the student-Newman-Keul's test were used to evaluate differences between groups, with P<0.05 considered significant.
Materials and methods were as described in Examples 6 and 7, with the following addition. DTBP-s and STBP were synthesized as described in Example 10. A total of 48 New Zealand White rabbits (1.8-2.2 kg) were used for this example. Rabbits were fed normal chow (100 g/day) without (Ctrl, n=12) or with 0.02% DTBP (wt/wt, n=6), 0.02% STBP (wt/wt, n=7), 0.02% DTBP-s (wt/wt, n=11) or 0.1% DTBP-s (wt/wt, n=7) for 9 weeks. Aortic balloon-injury was carried out at the end of week three.

| Structure (SMILES) | Relaxation to ACh of aortic rings after 400 μM HOCl [1] | Tissue cGMP of aortic rings after 400 μM HOCl and 1 μM ACh [1] | Intimal thickening / intima-to-media ratio after aortic balloon injury ([2]; 6 weeks after ABI) | Plasma total cholesterol concentration [2] | Protection against balloon injury-induced intimal hyperplasia ([2]; 0.02% wt/wt in chow, 9 weeks, ABI at end of week three, FIG. 21) | Vessel content of non-oxidized lipid ([2]; 6 weeks after ABI, FIG. 13c) | Vessel content of oxidized lipid ([2]; 6 weeks after ABI, FIG. 13d) | Protection against balloon injury-induced intimal hyperplasia, dependence on concentration ([2]; I/M ratio 6 weeks after ABI, FIG. 14) | Activity on a molar base relative to probucol ([2]; from relative aortic drug concentrations and in vivo protection) |
| --- | --- | --- | --- | --- | --- | --- | --- | --- | --- |
| CC(C)(Sc1cc(C(C)(C)C)c(O)c(C(C)(C)C)c1)Sc1cc(C(C)(C)C)c(O)c(C(C)(C)C)c1 [probucol] | retained responsiveness to ACh | greater content of cGMP | Inhibit Intimal Thickening | significantly reduced | – | – | – | – | – |
| CC(C)(C)c1cc(SSc2cc(C(C)(C)C)c(O)c(C(C)(C)C)c2)cc(C(C)(C)C)c1O [DTBP, 4,4′-dithiobis(2,6-di-tert-butyl-phenol)] | preserved the vascular function of isolated rings to an extent comparable to that seen with probucol | increase in tissue cGMP | significantly decreasing | without effect | significant protection | without altering | without altering | in a concentration-dependent manner | more active than probucol |
| CC(C)(C)c1cc(-c2cc(C(C)(C)C)c(O)c(C(C)(C)C)c2)cc(C(C)(C)C)c1O [BP, 3,3′,5,5′-tetra-tert-butyl-4,4′-bisphenol] | responded to HOCl indistinguishably from control | ineffective | lacked protective activity | significantly reduced | – | – | – | – | – |
